The target in the test is T1, Human M4 (Homo sapiens, UniProt P08173).
T1 construct: expressed in transfected cells; host or cells: CHO-K1 (ATCC), co-transfected with chimeric G protein Gqi5
T1 sequence (P08173 1-479): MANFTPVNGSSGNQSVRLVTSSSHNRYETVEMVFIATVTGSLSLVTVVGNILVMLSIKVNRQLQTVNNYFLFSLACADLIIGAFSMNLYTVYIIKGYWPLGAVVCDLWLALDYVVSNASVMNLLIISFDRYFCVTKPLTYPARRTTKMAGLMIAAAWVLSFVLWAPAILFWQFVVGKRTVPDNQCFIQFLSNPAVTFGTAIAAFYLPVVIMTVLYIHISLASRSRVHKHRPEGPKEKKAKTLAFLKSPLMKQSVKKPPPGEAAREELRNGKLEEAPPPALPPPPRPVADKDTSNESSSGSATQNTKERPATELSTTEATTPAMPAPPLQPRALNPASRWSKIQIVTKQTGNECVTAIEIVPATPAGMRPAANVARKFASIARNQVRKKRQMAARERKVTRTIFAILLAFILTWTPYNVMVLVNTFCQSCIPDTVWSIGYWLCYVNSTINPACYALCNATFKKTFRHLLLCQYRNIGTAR
As to the kind of experiment: mAChR M4 cell-based functional assay (calcium flux, antagonism of EC80 acetylcholine response). Particulars: M4/Gqi5/CHO-K1 cells; for remaining activity at 30 µM: CHO-K1, % ACh maximum at 30 μM, read-out: Human M4 Emin; for IC50: decrease of response elicited by EC80 acetylcholine. The procedure, abridged: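 CHO-K1 cells stably expressing human or rat M4 with Gqi5, Fluo-4 loaded; calcium measured by fluorescence ratio on FDSS. Compound added, then EC20 acetylcholine at 143 s and EC80 at 268 s; IC50 from decrease of EC80 response, four-parameter logistic fit.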

Take `[2H]C(C)(c1ccccn1)N1C[C@H]2C[C@H](Nc3cc(C(F)F)c(-c4cc(F)cc(F)c4F)nn3)C[C@H]2C1` (stereo partly drawn) [compound 51, (3aR,5s,6aS)-N-(5-(difluoromethyl)-6-(2,3,5-trifluorophenyl)pyridazin-3-yl)-2-(1-(pyridin-2-yl)ethyl-1-d)octahydrocyclopenta[c]pyrrol-5-amine]: the remaining activity at 30 µM turned out to be 2% and the IC50 (usually the midpoint of a concentration-inhibition curve) came out at 35 nM.

For the molecule `Fc1cc(F)c(F)c(-c2nnc(N[C@H]3C[C@@H]4CN(CCC5CCOCC5)C[C@@H]4C3)cc2C(F)F)c1` [compound 52, (3aR,5s,6aS)-N-(5-(difluoromethyl)-6-(2,3,5-trifluorophenyl)pyridazin-3-yl)-2-(2-(tetrahydro-2H-pyran-4-yl)ethyl)octahydrocyclopenta[c]pyrrol-5-amine], the remaining activity at 30 µM came out at 2% and the IC50 is 1.05 nM.

With `Fc1cc(F)c(F)c(-c2nnc(N[C@H]3C[C@@H]4CN(CC5CCCCC5)C[C@@H]4C3)cc2C(F)F)c1` [compound 53, (3aR,5s,6aS)-2-(cyclohexylmethyl)-N-(5-(difluoromethyl)-6-(2,3,5-trifluorophenyl)pyridazin-3-yl)octahydrocyclopenta[c]pyrrol-5-amine], the remaining activity at 30 µM was 2% and the IC50 is 19.1 nM.

Consider `OC1(CN2C[C@H]3C[C@H](Nc4cc(C(F)F)c(-c5cc(F)cc(F)c5F)nn4)C[C@H]3C2)CCCCC1` [compound 54, 1-(((3aR,5s,6aS)-5-((5-(difluoromethyl)-6-(2,3,5-trifluorophenyl)pyridazin-3-yl)amino)hexahydrocyclopenta[c]pyrrol-2(1H)-yl)methyl)cyclohexan-1-ol], for which the remaining activity at 30 µM stood at 1% and the IC50 was 3.42 nM.

For `OC1(CN2C[C@H]3C[C@H](Nc4cc(C(F)F)c(-c5cc(F)cc(F)c5F)nn4)C[C@H]3C2)CCOCC1` [compound 55, 4-(((3aR,5s,6aS)-5-((5-(difluoromethyl)-6-(2,3,5-trifluorophenyl)pyridazin-3-yl)amino)hexahydrocyclopenta[c]pyrrol-2(1H)-yl)methyl)tetrahydro-2H-pyran-4-ol], the remaining activity at 30 µM turned out to be 2% and the IC50 came to 3.12 nM.

Consider `Fc1cc(F)c(F)c(-c2nnc(N[C@H]3C[C@@H]4CN(C[C@@H]5COCCO5)C[C@@H]4C3)cc2C(F)F)c1` [compound 56, (3aR,5s,6aS)-2-(((R)-1,4-dioxan-2-yl)methyl)-N-(5-(difluoromethyl)-6-(2,3,5-trifluorophenyl)pyridazin-3-yl)octahydrocyclopenta[c]pyrrol-5-amine], for which the remaining activity at 30 µM was 2% and the IC50 was found to be 0.66 nM.

With `Fc1cc(F)c(F)c(-c2nnc(N[C@H]3C[C@@H]4CN(C[C@H]5COCCO5)C[C@@H]4C3)cc2C(F)F)c1` [compound 57, (3aR,5s,6aS)-2-(((S)-1,4-dioxan-2-yl)methyl)-N-(5-(difluoromethyl)-6-(2,3,5-trifluorophenyl)pyridazin-3-yl)octahydrocyclopenta[c]pyrrol-5-amine], the remaining activity at 30 µM was determined as 3% and the IC50 was found to be 15.5 nM.

With `Fc1ccc(F)c(-c2cc(C(F)F)c(N[C@H]3C[C@@H]4CN(CC5CCOCC5)C[C@@H]4C3)nn2)c1` [compound 58, (3aR,5s,6aS)-N-(4-(difluoromethyl)-6-(2,5-difluorophenyl)pyridazin-3-yl)-2-((tetrahydro-2H-pyran-4-yl)methyl)octahydrocyclopenta[c]pyrrol-5-amine], the remaining activity at 30 µM stood at 3% and the IC50 amounted to 6.42 nM.

Take `Cc1ccc(F)cc1-c1cc(C(F)F)c(N[C@H]2C[C@@H]3CN(CC4CCOCC4)C[C@@H]3C2)nn1` [compound 59, (3aR,5s,6aS)-N-(4-(difluoromethyl)-6-(5-fluoro-2-methylphenyl)pyridazin-3-yl)-2-((tetrahydro-2H-pyran-4-yl)methyl)octahydrocyclopenta[c]pyrrol-5-amine]: the remaining activity at 30 µM is 3% and the IC50 came to 1.2 nM.

Consider `[2H]C([2H])(C1CCOCC1)N1C[C@H]2C[C@H](Nc3nnc(-c4cc(F)ccc4F)c(C)c3C)C[C@H]2C1` [compound 60, (3aR,5s,6aS)-N-(6-(2,5-difluorophenyl)-4,5-dimethylpyridazin-3-yl)-2-((tetrahydro-2H-pyran-4-yl)methyl-d2)octahydrocyclopenta[c]pyrrol-5-amine], for which the remaining activity at 30 µM worked out at 2% and the IC50 stood at 0.66 nM.

For `[2H]C([2H])(C1CCOCC1)N1C[C@H]2C[C@H](Nc3nnc(-c4ccccc4F)c(C)c3C)C[C@H]2C1` [compound 61, (3aR,5s,6aS)-N-(6-(2-fluorophenyl)-4,5-dimethylpyridazin-3-yl)-2-((tetrahydro-2H-pyran-4-yl)methyl-d2)octahydrocyclopenta[c]pyrrol-5-amine], the remaining activity at 30 µM is 2% and the IC50 is 0.52 nM.

With `[2H]C([2H])(C1CCOCC1)N1C[C@H]2C[C@H](Nc3nnc(-c4cccc(F)c4)c(C)c3C)C[C@H]2C1` [compound 62, (3aR,5s,6aS)-N-(6-(3-fluorophenyl)-4,5-dimethylpyridazin-3-yl)-2-((tetrahydro-2H-pyran-4-yl)methyl-d2)octahydrocyclopenta[c]pyrrol-5-amine], the remaining activity at 30 µM is 2% and the IC50 came to 0.71 nM.

`[2H]C([2H])(C1CCOCC1)N1C[C@H]2C[C@H](Nc3nnc(-c4cc(F)ccc4C)c(C)c3C)C[C@H]2C1` [compound 63, (3aR,5s,6aS)-N-(6-(5-fluoro-2-methylphenyl)-4,5-dimethylpyridazin-3-yl)-2-((tetrahydro-2H-pyran-4-yl)methyl-d2)octahydrocyclopenta[c]pyrrol-5-amine]: the remaining activity at 30 µM turned out to be 2% and the IC50 was determined as 0.92 nM.

As to `Cc1c(-c2cc(F)ccc2F)nnc(N[C@H]2C[C@@H]3CN(CC4CCOCC4)C[C@@H]3C2)c1C#N` [compound 64, 6-(2,5-difluorophenyl)-5-methyl-3-(((3aR,5s,6aS)-2-((tetrahydro-2H-pyran-4-yl)methyl)octahydrocyclopenta[c]pyrrol-5-yl)amino)pyridazine-4-carbonitrile], the remaining activity at 30 µM amounted to 3% and the half-maximal inhibitory concentration (IC50) came out at 7.69 nM.

As for `Cc1c(Cl)nnc(N[C@H]2C[C@@H]3CN(CC4CCOCC4)C[C@@H]3C2)c1C#N` [compound 65, 6-chloro-5-methyl-3-(((3aR,5s,6aS)-2-((tetrahydro-2H-pyran-4-yl)methyl)octahydrocyclopenta[c]pyrrol-5-yl)amino)pyridazine-4-carbonitrile], the remaining activity at 30 µM was determined as 8% and the IC50 came out at 2930 nM.

Take `Cc1c(-c2cc(F)ccc2F)nnc(N[C@H]2C[C@@H]3CN(C[C@H]4CC5CCC4O5)C[C@@H]3C2)c1C#N` (stereo partly drawn) [compound 66, 3-(((3aR,5s,6aS)-2-(((2R)-7-oxabicyclo[2.2.1]heptan-2-yl)methyl)octahydrocyclopenta[c]pyrrol-5-yl)amino)-6-(2,5-difluorophenyl)-5-methylpyridazine-4-carbonitrile]: the remaining activity at 30 µM was 3% and the IC50 is 17.9 nM.

As for `Cc1c(-c2cc(F)ccc2Cl)nnc(N[C@H]2C[C@@H]3CN(CC4CCOCC4)C[C@@H]3C2)c1C#N` [compound 67, 6-(2-chloro-5-fluorophenyl)-5-methyl-3-(((3aR,5s,6aS)-2-((tetrahydro-2H-pyran-4-yl)methyl)octahydrocyclopenta[c]pyrrol-5-yl)amino)pyridazine-4-carbonitrile], the remaining activity at 30 µM came to 2% and the IC50 was 0.83 nM.

In the case of `Cc1c(-c2ccccc2F)nnc(N[C@H]2C[C@@H]3CN(CC4CCOCC4)C[C@@H]3C2)c1C#N` [compound 68, 6-(2-fluorophenyl)-5-methyl-3-(((3aR,5s,6aS)-2-((tetrahydro-2H-pyran-4-yl)methyl)octahydrocyclopenta[c]pyrrol-5-yl)amino)pyridazine-4-carbonitrile], the remaining activity at 30 µM turned out to be 3% and the IC50 was determined as 0.97 nM.

Regarding `Cc1c(-c2cccc(F)c2)nnc(N[C@H]2C[C@@H]3CN(CC4CCOCC4)C[C@@H]3C2)c1C#N` [compound 69, 6-(3-fluorophenyl)-5-methyl-3-(((3aR,5s,6aS)-2-((tetrahydro-2H-pyran-4-yl)methyl)octahydrocyclopenta[c]pyrrol-5-yl)amino)pyridazine-4-carbonitrile], the remaining activity at 30 µM amounted to 3% and the IC50 came out at 8.42 nM.

As for `[2H]C([2H])(C1CCOCC1)N1C[C@H]2C[C@H](Nc3nnc(-c4ccc(F)cc4)c(C)c3C)C[C@H]2C1` [compound 70, (3aR,5s,6aS)-N-(6-(4-fluorophenyl)-4,5-dimethylpyridazin-3-yl)-2-((tetrahydro-2H-pyran-4-yl)methyl-d2)octahydrocyclopenta[c]pyrrol-5-amine], the remaining activity at 30 µM came to 11% and the IC50 amounted to 24.1 nM.

The values are drawn from patent US20230122344A1, “ANTAGONISTS OF THE MUSCARINIC ACETYLCHOLINE RECEPTOR M4” (Vanderbilt University, priority 2019, published 2023).
